Results: patent publication US12723063B2, “GIPR-agonist compounds” (Eli Lilly and Company, priority 2019, dated 2026)
*1 amine or outer side, *2 acyl side, *3 side chain or, on linkers, in order; H or OH if unused. Where a SMILES comes first, the peptide text is derived from it. Side-chain parts run from the residue outwards. [ ]: non-standard residue; d: D form. The star is where a group is joined. C20 diacid = O=C(O)CCCCCCCCCCCCCCCCCCC(=O)*; C18 diacid = O=C(O)CCCCCCCCCCCCCCCCC(=O)*; αMePhe(2-F) = C[C@](N)(Cc1ccccc1F)C(=O)O; γGlu = O=C(O)[C@H](CCC(=O)[*:2])N[*:1]; αMeF = C[C@](N)(Cc1ccccc1)C(=O)O; 4Pal = N[C@@H](Cc1ccncc1)C(=O)O; αMeL = CC(C)C[C@](C)(N)C(=O)O; AEEA = NCCOCCOCC(=O)O; Aib = CC(C)(N)C(=O)O

Experiments:
Test in all cases: cAMP functional assay (HTRF) in HEK293 cells in presence of 0.1% casein
Type in all cases: cell-based
[1] = target: T1, human GLP-1 receptor (GLP-1R) (Homo sapiens, UniProt P43220); conditions: HEK293 cells expressing human GLP-1R, geometric mean, read-out: hGLP1R cAMP Rel EC50 nM (SEM, n)
T1 construct: expressed in transfected cells; host or cells: HEK293
T1 sequence (P43220 24-463): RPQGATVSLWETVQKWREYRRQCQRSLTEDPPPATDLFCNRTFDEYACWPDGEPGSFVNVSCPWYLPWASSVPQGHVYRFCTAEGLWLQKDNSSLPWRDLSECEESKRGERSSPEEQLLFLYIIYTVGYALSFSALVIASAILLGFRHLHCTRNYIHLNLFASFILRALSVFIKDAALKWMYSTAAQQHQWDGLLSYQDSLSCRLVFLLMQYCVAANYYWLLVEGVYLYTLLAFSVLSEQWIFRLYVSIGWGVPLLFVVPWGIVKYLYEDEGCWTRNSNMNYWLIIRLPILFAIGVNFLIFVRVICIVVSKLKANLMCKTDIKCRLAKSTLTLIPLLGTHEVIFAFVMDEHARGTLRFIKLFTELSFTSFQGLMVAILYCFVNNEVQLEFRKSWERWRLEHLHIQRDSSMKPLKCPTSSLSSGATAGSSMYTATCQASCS

[2] = target: T2, human glucagon receptor (GcgR) (Homo sapiens, UniProt P47871); conditions: HEK293 cells expressing human GcgR, geometric mean, read-out: hGcgR cAMP Rel EC50 nM (SEM, n)
T2 construct: expressed in transfected cells; host or cells: HEK293
T2 sequence (P47871 26-477): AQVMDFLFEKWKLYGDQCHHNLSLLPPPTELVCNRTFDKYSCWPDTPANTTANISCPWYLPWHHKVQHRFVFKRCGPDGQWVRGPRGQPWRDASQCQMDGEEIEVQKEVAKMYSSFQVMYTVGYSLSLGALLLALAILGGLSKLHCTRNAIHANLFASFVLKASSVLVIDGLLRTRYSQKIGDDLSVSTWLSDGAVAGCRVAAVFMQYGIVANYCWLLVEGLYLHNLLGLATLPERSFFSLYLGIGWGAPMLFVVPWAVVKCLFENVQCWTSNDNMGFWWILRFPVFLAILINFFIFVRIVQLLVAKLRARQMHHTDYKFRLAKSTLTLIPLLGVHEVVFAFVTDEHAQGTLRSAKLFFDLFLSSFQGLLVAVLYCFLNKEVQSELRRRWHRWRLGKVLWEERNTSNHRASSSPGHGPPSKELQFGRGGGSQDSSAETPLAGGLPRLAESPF

[3] = target: T3, human glucose-dependent insulinotropic peptide receptor (GIPR) (Homo sapiens, UniProt P48546); conditions: HEK293 cells expressing human GIPR, geometric mean, read-out: hGIPR cAMP Rel EC50 nM (SEM, n)
T3 construct: expressed in transfected cells; host or cells: HEK293
T3 sequence (P48546 22-466): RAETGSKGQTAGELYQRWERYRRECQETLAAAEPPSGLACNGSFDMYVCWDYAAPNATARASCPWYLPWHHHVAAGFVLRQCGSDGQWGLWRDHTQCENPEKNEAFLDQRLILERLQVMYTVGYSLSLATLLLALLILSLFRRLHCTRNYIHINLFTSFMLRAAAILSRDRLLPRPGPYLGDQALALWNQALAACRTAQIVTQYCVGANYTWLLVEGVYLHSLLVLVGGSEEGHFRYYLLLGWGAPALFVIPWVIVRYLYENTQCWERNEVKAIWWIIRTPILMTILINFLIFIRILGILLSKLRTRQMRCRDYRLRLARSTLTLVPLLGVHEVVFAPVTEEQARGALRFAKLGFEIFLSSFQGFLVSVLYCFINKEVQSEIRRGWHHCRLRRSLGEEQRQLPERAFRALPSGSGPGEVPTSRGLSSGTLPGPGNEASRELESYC

Row | SMILES | EC50 [1] [nM] | EC50 [2] [nM] | EC50 [3] [nM]
1 | CC[C@H](C)[C@H](NC(=O)[C@H](CO)NC(=O)[C@H](Cc1ccc(O)cc1)NC(=O)[C@H](CC(=O)O)NC(=O)[C@H](CO)NC(=O)[C@@H](NC(=O)[C@](C)(Cc1ccccc1F)NC(=O)[C@@H](NC(=O)CNC(=O)[C@H](CCC(=O)O)NC(=O)C(C)(C)NC(=O)[C@@H](N)Cc1ccc(O)cc1)[C@@H](C)O)[C@@H](C)CC)C(=O)N[C@@H](C)C(=O)N[C@@H](CC(C)C)C(=O)N[C@@H](CC(=O)O)C(=O)N[C@@H](CCCCN)C(=O)N[C@@H](CCCCNC(=O)COCCOCCNC(=O)COCCOCCNC(=O)CC[C@H](NC(=O)CCCCCCCCCCCCCCCCCCC(=O)O)C(=O)O)C(=O)N[C@@H](Cc1c[nH]cn1)C(=O)N[C@@H](CCC(N)=O)C(=O)NC(C)(C)C(=O)N[C@@H](CC(=O)O)C(=O)N[C@@H](Cc1ccccc1)C(=O)N[C@H](C(=O)N[C@@H](CCC(=O)O)C(=O)N[C@@H](Cc1ccc(O)cc1)C(=O)N[C@@H](CC(C)C)C(=O)N[C@@H](CC(C)C)C(=O)N[C@@H](CCC(=O)O)C(=O)N[C@H](C(=O)NCC(=O)N1CCC[C@H]1C(=O)N[C@@H](CO)C(=O)N[C@@H](CO)C(=O)NCC(=O)N[C@@H](C)C(=O)N1CCC[C@H]1C(=O)N1CCC[C@H]1C(=O)N1CCC[C@H]1C(=O)N[C@@H](CO)C(N)=O)[C@@H](C)O)C(C)C [Example 36] (H-Y[Aib]EGT[αMePhe(2-F)]ISDYSIALDKK([AEEA-AEEA-γGlu-C20 diacid])HQ[Aib]DFVEYLLETGPSSGAPPPS-NH2) | 1080 | > 5000 | 0.0543
2 | CC[C@H](C)[C@H](NC(=O)[C@H](Cc1ccccc1)NC(=O)[C@@H](NC(=O)CNC(=O)[C@H](CCC(=O)O)NC(=O)C(C)(C)NC(=O)[C@@H](N)Cc1ccc(O)cc1)[C@@H](C)O)C(=O)N[C@@H](CO)C(=O)N[C@@H](CC(=O)O)C(=O)N[C@@H](Cc1ccc(O)cc1)C(=O)N[C@@H](CO)C(=O)N[C@H](C(=O)N[C@@](C)(CC(C)C)C(=O)N[C@@H](CC(C)C)C(=O)N[C@@H](CC(=O)O)C(=O)N[C@@H](CCCCN)C(=O)N[C@@H](CCCCNC(=O)COCCOCCNC(=O)COCCOCCNC(=O)CC[C@H](NC(=O)CCCCCCCCCCCCCCCCCCC(=O)O)C(=O)O)C(=O)N[C@@H](Cc1c[nH]cn1)C(=O)N[C@@H](CCC(N)=O)C(=O)NC(C)(C)C(=O)N[C@@H](CC(=O)O)C(=O)N[C@@H](Cc1ccccc1)C(=O)N[C@H](C(=O)N[C@@H](CCC(=O)O)C(=O)N[C@@H](Cc1ccncc1)C(=O)N[C@@H](CC(C)C)C(=O)N[C@@H](CC(C)C)C(=O)N[C@@H](CCC(=O)O)C(=O)N[C@@H](CCC(N)=O)C(=O)NCC(=O)N1CCC[C@H]1C(=O)N[C@@H](CO)C(=O)N[C@@H](CO)C(=O)NCC(=O)N[C@@H](C)C(=O)N1CCC[C@H]1C(=O)N1CCC[C@H]1C(=O)N1CCC[C@H]1C(=O)N[C@@H](CO)C(N)=O)C(C)C)[C@@H](C)CC [Example 46] (H-Y[Aib]EGTFISDYSI[αMeL]LDKK([AEEA-AEEA-γGlu-C20 diacid])HQ[Aib]DFVE[4Pal]LLEQGPSSGAPPPS-NH2) | > 5000 | 863 | 0.0294
3 | CC[C@H](C)[C@H](NC(=O)[C@H](CO)NC(=O)[C@H](Cc1ccc(O)cc1)NC(=O)[C@H](CC(=O)O)NC(=O)[C@H](CO)NC(=O)[C@@H](NC(=O)[C@H](CC(C)C)NC(=O)[C@@H](NC(=O)CNC(=O)[C@H](CCC(=O)O)NC(=O)[C@@H](C)NC(=O)[C@@H](N)Cc1ccc(O)cc1)[C@@H](C)O)[C@@H](C)CC)C(=O)N[C@@H](CC(C)C)C(=O)N[C@@H](CC(C)C)C(=O)N[C@@H](CC(=O)O)C(=O)N[C@@H](CCCCN)C(=O)N[C@@H](CCCCNC(=O)COCCOCCNC(=O)COCCOCCNC(=O)CC[C@H](NC(=O)CCCCCCCCCCCCCCCCC(=O)O)C(=O)O)C(=O)N[C@@H](C)C(=O)N[C@@H](CCC(N)=O)C(=O)NC(C)(C)C(=O)N[C@@H](CC(=O)O)C(=O)N[C@@H](Cc1ccccc1)C(=O)N[C@H](C(=O)N[C@@H](CC(N)=O)C(=O)N[C@@H](Cc1c[nH]c2ccccc12)C(=O)N[C@@H](CC(C)C)C(=O)N[C@@H](CC(C)C)C(=O)N[C@@H](C)C(=O)N[C@@H](CCC(N)=O)C(=O)NCC(=O)N1CCC[C@H]1C(=O)N[C@@H](CO)C(=O)N[C@@H](CO)C(=O)NCC(=O)N[C@@H](C)C(=O)N1CCC[C@H]1C(=O)N1CCC[C@H]1C(=O)N1CCC[C@H]1C(=O)N[C@@H](CO)C(N)=O)C(C)C [Example 32] (H-Y[dA]EGTLISDYSILLDKK([AEEA-AEEA-γGlu-C18 diacid])AQ[Aib]DFVNWLLAQGPSSGAPPPS-NH2) | > 5000 | > 5000 | 0.00469
4 | CC[C@H](C)[C@H](NC(=O)[C@H](CO)NC(=O)[C@H](Cc1ccc(O)cc1)NC(=O)[C@H](CC(=O)O)NC(=O)[C@H](CO)NC(=O)[C@@H](NC(=O)[C@](C)(Cc1ccccc1)NC(=O)[C@@H](NC(=O)CNC(=O)[C@H](CCC(=O)O)NC(=O)C(C)(C)NC(=O)[C@@H](N)Cc1ccc(O)cc1)[C@@H](C)O)[C@@H](C)CC)C(=O)N[C@@](C)(CC(C)C)C(=O)N[C@@H](CC(C)C)C(=O)N[C@@H](CC(=O)O)C(=O)N[C@@H](CCCCN)C(=O)N[C@@H](CCCCNC(=O)COCCOCCNC(=O)COCCOCCNC(=O)CC[C@H](NC(=O)CCCCCCCCCCCCCCCCCCC(=O)O)C(=O)O)C(=O)N[C@@H](Cc1c[nH]cn1)C(=O)N[C@@H](CCC(N)=O)C(=O)NC(C)(C)C(=O)N[C@@H](CCC(=O)O)C(=O)N[C@@H](Cc1ccccc1)C(=O)N[C@H](C(=O)N[C@@H](CCC(=O)O)C(=O)N[C@@H](Cc1ccncc1)C(=O)N[C@@H](CC(C)C)C(=O)N[C@@H](CC(C)C)C(=O)N[C@@H](C)C(=O)N[C@H](C(=O)NCC(=O)N1CCC[C@H]1C(=O)N[C@@H](CO)C(=O)N[C@@H](CO)C(=O)NCC(=O)N[C@@H](C)C(=O)N1CCC[C@H]1C(=O)N1CCC[C@H]1C(=O)N1CCC[C@H]1C(=O)N[C@@H](CO)C(N)=O)[C@@H](C)O)C(C)C [Example 61] (H-Y[Aib]EGT[αMeF]ISDYSI[αMeL]LDKK([AEEA-AEEA-γGlu-C20 diacid])HQ[Aib]EFVE[4Pal]LLATGPSSGAPPPS-NH2) | 192 | > 5000 | 0.0167
5 | CC[C@H](C)[C@H](NC(=O)[C@H](CO)NC(=O)[C@H](Cc1ccc(O)cc1)NC(=O)[C@H](CC(=O)O)NC(=O)[C@H](CO)NC(=O)[C@@H](NC(=O)[C@](C)(Cc1ccccc1)NC(=O)[C@@H](NC(=O)CNC(=O)[C@H](CCC(=O)O)NC(=O)C(C)(C)NC(=O)[C@@H](N)Cc1ccc(O)cc1)[C@@H](C)O)[C@@H](C)CC)C(=O)N[C@@](C)(CC(C)C)C(=O)N[C@@H](CC(C)C)C(=O)N[C@@H](CC(=O)O)C(=O)N[C@@H](CCCCN)C(=O)N[C@@H](CCCCNC(=O)COCCOCCNC(=O)COCCOCCNC(=O)CC[C@H](NC(=O)CCCCCCCCCCCCCCCCCCC(=O)O)C(=O)O)C(=O)N[C@@H](Cc1c[nH]cn1)C(=O)N[C@@H](CCC(N)=O)C(=O)NC(C)(C)C(=O)N[C@@H](CC(=O)O)C(=O)N[C@@H](Cc1ccccc1)C(=O)N[C@H](C(=O)N[C@@H](CCC(=O)O)C(=O)N[C@@H](Cc1ccncc1)C(=O)N[C@@H](CC(C)C)C(=O)N[C@@H](CC(C)C)C(=O)N[C@@H](C)C(=O)NCC(=O)NCC(=O)N1CCC[C@H]1C(=O)N[C@@H](CO)C(=O)N[C@@H](CO)C(=O)NCC(=O)N[C@@H](C)C(=O)N1CCC[C@H]1C(=O)N1CCC[C@H]1C(=O)N1CCC[C@H]1C(=O)N[C@@H](CO)C(N)=O)C(C)C [Example 50] (H-Y[Aib]EGT[αMeF]ISDYSI[αMeL]LDKK([AEEA-AEEA-γGlu-C20 diacid])HQ[Aib]DFVE[4Pal]LLAGGPSSGAPPPS-NH2) | 41 | 371 | 0.0212
6 | CC[C@H](C)[C@H](NC(=O)[C@H](CO)NC(=O)[C@H](Cc1ccc(O)cc1)NC(=O)[C@H](CC(=O)O)NC(=O)[C@H](CO)NC(=O)[C@@H](NC(=O)[C@](C)(Cc1ccccc1F)NC(=O)[C@@H](NC(=O)CNC(=O)[C@H](CCC(=O)O)NC(=O)C(C)(C)NC(=O)[C@@H](N)Cc1ccc(O)cc1)[C@@H](C)O)[C@@H](C)CC)C(=O)N[C@@H](C)C(=O)N[C@@H](CC(C)C)C(=O)N[C@@H](CC(=O)O)C(=O)N[C@@H](CCCCN)C(=O)N[C@@H](CCCCNC(=O)COCCOCCNC(=O)COCCOCCNC(=O)CC[C@H](NC(=O)CCCCCCCCCCCCCCCCCCC(=O)O)C(=O)O)C(=O)N[C@@H](Cc1c[nH]cn1)C(=O)N[C@@H](CCC(N)=O)C(=O)NC(C)(C)C(=O)N[C@@H](CCC(=O)O)C(=O)N[C@@H](Cc1ccccc1)C(=O)N[C@H](C(=O)N[C@@H](CC(N)=O)C(=O)N[C@@H](Cc1ccc(O)cc1)C(=O)N[C@@H](CC(C)C)C(=O)N[C@@H](CC(C)C)C(=O)N[C@@H](C)C(=O)N[C@H](C(=O)NCC(=O)N1CCC[C@H]1C(=O)N[C@@H](CO)C(=O)N[C@@H](CO)C(=O)NCC(=O)N[C@@H](C)C(=O)N1CCC[C@H]1C(=O)N1CCC[C@H]1C(=O)N1CCC[C@H]1C(=O)N[C@@H](CO)C(N)=O)[C@@H](C)O)C(C)C [Example 34] (H-Y[Aib]EGT[αMePhe(2-F)]ISDYSIALDKK([AEEA-AEEA-γGlu-C20 diacid])HQ[Aib]EFVNYLLATGPSSGAPPPS-NH2) | 462 | 913 | 0.0177
